Laboratory results taken from US6472348B1, “Pyridone derivatives and herbicides” (Kumiai Chemical Industry Co., Ltd., priority 1996, dated 2002).

Tested on: pale smartweed (Po)
Assay: Test Example 9: crop plant selectivity by upland field foliage treatment (wheat), herbicidal effects
Type: in vivo
Design: scale not given here
Details: dose 1.6 g ai/10a, 14th day after treatment
In short: (§1)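 Read-out: weed control and wheat injury, rated by a defined scoring standard 14 days after foliar application.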

SMILES	Herbicidal effects Po
COCN1C(=O)COc2cc(F)c(-c3ccc(C(F)(F)F)n(C)c3=O)cc21 [Compound 2-19]	5

Tested on: common lambsquarters (Ch)
Assay: as above
Type: in vivo
Design: scale not given here
Details: dose 1.6 g ai/10a, 14th day after treatment
In short: as §1

SMILES	Herbicidal effects Ch
COCN1C(=O)COc2cc(F)c(-c3ccc(C(F)(F)F)n(C)c3=O)cc21 [Compound 2-19]	5

Tested on: China jute (Ab)
Assay: as above
Type: in vivo
Design: scale not given here
Details: dose 1.6 g ai/10a, 14th day after treatment
In short: as §1

SMILES	Herbicidal effects Ab
COCN1C(=O)COc2cc(F)c(-c3ccc(C(F)(F)F)n(C)c3=O)cc21 [Compound 2-19]	5

Tested on: slender amaranth (Am)
Assay: as above
Type: in vivo
Design: scale not given here
Details: dose 1.6 g ai/10a, 14th day after treatment
In short: as §1

SMILES	Herbicidal effects Am
COCN1C(=O)COc2cc(F)c(-c3ccc(C(F)(F)F)n(C)c3=O)cc21 [Compound 2-19]	5

Tested on: barnyardgrass (Ec)
Assay: Test Example 1: herbicidal effects by paddy field soil treatment;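 also: grade of growth control; 5 = at least 90%; 4 = 70 to 90%; 3 = 50 to 70%; 2 = 30 to 50%; 1 = 10 to 30%; 0 = under 10%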
Type: in vivo
Details: 100 g of the active ingredient per 10 ares, 21st day after the application, index 0-5 of Table 47
In short: (§2)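 Flooded paddy-soil pots (3 cm water) sown after puddling/leveling; treatment 100 g a.i./10 ares; greenhouse culture; herbicidal effect rated visually on a scoring scale at 21 d post-application.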

SMILES	Herbicidal effects Ec
COCN1C(=O)COc2cc(F)c(-c3ccc(C(F)(F)F)n(C)c3=O)cc21 [Compound 2-19]	5

Tested on: bulrush (Sc)
Assay: as above
Type: in vivo
Details: 100 g of the active ingredient per 10 ares, 21st day after the application, index 0-5 of Table 47
In short: as §2

SMILES	Herbicidal effects Sc
COCN1C(=O)COc2cc(F)c(-c3ccc(C(F)(F)F)n(C)c3=O)cc21 [Compound 2-19]	5

Tested on: monochoria (Mo)
Assay: as above
Type: in vivo
Details: 100 g of the active ingredient per 10 ares, 21st day after the application, index 0-5 of Table 47
In short: as §2

SMILES	Herbicidal effects Mo
COCN1C(=O)COc2cc(F)c(-c3ccc(C(F)(F)F)n(C)c3=O)cc21 [Compound 2-19]	5

Tested on: barnyardgrass (Ec)
Assay: Test Example 3: herbicidal effects by upland field foliage treatment
Type: in vivo
Design: scale not given here
Details: 100 g active ingredient per 10 ares, evaluated 14th day after treatment
In short: (§3)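 Scoring used a standard effect scale on the 14th day post-treatment, with plants held in a greenhouse throughout. Foliar application was made to weeds raised from seed in sand-filled pots for 2 weeks.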

SMILES	Herbicidal effects Ec
COCN1C(=O)COc2cc(F)c(-c3ccc(C(F)(F)F)n(C)c3=O)cc21 [Compound 2-19]	5

Tested on: Diaitaria ciliaris (Di)
Assay: as above
Type: in vivo
Design: scale not given here
Details: 100 g active ingredient per 10 ares, evaluated 14th day after treatment
In short: as §3

SMILES	Herbicidal effects Di
COCN1C(=O)COc2cc(F)c(-c3ccc(C(F)(F)F)n(C)c3=O)cc21 [Compound 2-19]	5

Tested on: pale smartweed (Po)
Assay: as above
Type: in vivo
Design: scale not given here
Details: 100 g active ingredient per 10 ares, evaluated 14th day after treatment
In short: as §3

SMILES	Herbicidal effects Po
COCN1C(=O)COc2cc(F)c(-c3ccc(C(F)(F)F)n(C)c3=O)cc21 [Compound 2-19]	5

Tested on: common lambsquarters (Ch)
Assay: as above
Type: in vivo
Design: scale not given here
Details: 100 g active ingredient per 10 ares, evaluated 14th day after treatment
In short: as §3

SMILES	Herbicidal effects Ch
COCN1C(=O)COc2cc(F)c(-c3ccc(C(F)(F)F)n(C)c3=O)cc21 [Compound 2-19]	5

Tested on: rice flatsedge (Ci)
Assay: as above
Type: in vivo
Design: scale not given here
Details: 100 g active ingredient per 10 ares, evaluated 14th day after treatment
In short: as §3

SMILES	Herbicidal effects Ci
COCN1C(=O)COc2cc(F)c(-c3ccc(C(F)(F)F)n(C)c3=O)cc21 [Compound 2-19]	5

Tested on: slender amaranth (Am)
Assay: as above
Type: in vivo
Design: scale not given here
Details: 100 g active ingredient per 10 ares, evaluated 14th day after treatment
In short: as §3

SMILES	Herbicidal effects Am
COCN1C(=O)COc2cc(F)c(-c3ccc(C(F)(F)F)n(C)c3=O)cc21 [Compound 2-19]	5

Tested on: barnyardgrass (Ec)
Assay: Test Example 2: herbicidal effects by upland field soil treatment;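 also: grade of growth control; 5 = at least 90%; 4 = 70 to 90%; 3 = 50 to 70%; 2 = 30 to 50%; 1 = 10 to 30%; 0 = under 10%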
Type: in vivo
Details: 100 g of the active ingredient per 10 ares, evaluated on the 21st day after application
Excerpt: (§4) (Test on Herbicidal Effects by Upland Field Soil Treatment)

SMILES	Herbicidal effects Ec
COCN1C(=O)COc2cc(F)c(-c3ccc(C(F)(F)F)n(C)c3=O)cc21 [Compound 2-19]	5

Tested on: pale smartweed (Po)
Assay: as above
Type: in vivo
Details: 100 g of the active ingredient per 10 ares, evaluated on the 21st day after application
Excerpt: as §4

SMILES	Herbicidal effects Po
COCN1C(=O)COc2cc(F)c(-c3ccc(C(F)(F)F)n(C)c3=O)cc21 [Compound 2-19]	5

Tested on: Digitaria ciliaris (Di)
Assay: as above
Type: in vivo
Details: 100 g of the active ingredient per 10 ares, evaluated on the 21st day after application
Excerpt: as §4

SMILES	Herbicidal effects Di
COCN1C(=O)COc2cc(F)c(-c3ccc(C(F)(F)F)n(C)c3=O)cc21 [Compound 2-19]	5

Tested on: common lambsquarters (Ch)
Assay: as above
Type: in vivo
Details: 100 g of the active ingredient per 10 ares, evaluated on the 21st day after application
Excerpt: as §4

SMILES	Herbicidal effects Ch
COCN1C(=O)COc2cc(F)c(-c3ccc(C(F)(F)F)n(C)c3=O)cc21 [Compound 2-19]	5

Tested on: rice flatsedge (Ci)
Assay: as above
Type: in vivo
Details: 100 g of the active ingredient per 10 ares, evaluated on the 21st day after application
Excerpt: as §4

SMILES	Herbicidal effects Ci
COCN1C(=O)COc2cc(F)c(-c3ccc(C(F)(F)F)n(C)c3=O)cc21 [Compound 2-19]	5

Tested on: slender amaranth (Am)
Assay: as above
Type: in vivo
Details: 100 g of the active ingredient per 10 ares, evaluated on the 21st day after application
Excerpt: as §4

SMILES	Herbicidal effects Am
COCN1C(=O)COc2cc(F)c(-c3ccc(C(F)(F)F)n(C)c3=O)cc21 [Compound 2-19]	5

Tested on: corn (Ze)
Assay: Test Example 11: crop plant selectivity by upland field foliage treatment (corn), phytotoxicity
Details: upland field foliage treatment, dose 1.6 g ai/10a, 14th day after treatment
Procedure: (§5) (Test on Crop Plant Selectivity by Upland Field Foliage Treatment)
(§6) In a plastic pot (surface area: 600 cm^2) filled with sand, corn (Ze), pale smartweed (Po), slender amaranth (Am), common lambsquarters (Ch) and China jute (Ab) were sown and cultured in a green house for 2 weeks. […] The plants were then cultured in a green house, and the evaluation of the herbicidal effects and phytotoxicity was conducted on the 14th day after the treatment in accordance with the standards as identified in Table 47.

SMILES	Phytotoxicity Ze
COCN1C(=O)COc2cc(F)c(-c3ccc(C(F)(F)F)n(C)c3=O)cc21 [Compound 2-19]	1

Tested on: wheat (Tr)
Assay: Test Example 9: crop plant selectivity by upland field foliage treatment (wheat), phytotoxicity;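 also: grade of crop injury; 5 = at least 90%; 4 = 70 to 90%; 3 = 50 to 70%; 2 = 30 to 50%; 1 = 10 to 30%; 0 = under 10%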
Details: dose 1.6 g ai/10a, 14th day after treatment
In short: as §1

SMILES	Phytotoxicity Tr
COCN1C(=O)COc2cc(F)c(-c3ccc(C(F)(F)F)n(C)c3=O)cc21 [Compound 2-19]	1

Tested on: pale smartweed (Po)
Assay: Test Example 11: crop plant selectivity by upland field foliage treatment (corn), herbicidal effects
Type: in vivo
Design: scale not given here
Details: upland field foliage treatment (corn test), dose 1.6 g ai/10a, 14th day after treatment
Procedure: as §5, §6

SMILES	Herbicidal effects Po
COCN1C(=O)COc2cc(F)c(-c3ccc(C(F)(F)F)n(C)c3=O)cc21 [Compound 2-19]	5

Tested on: common lambsquarters (Ch)
Assay: as above
Type: in vivo
Design: scale not given here
Details: upland field foliage treatment (corn test), dose 1.6 g ai/10a, 14th day after treatment
Procedure: as §5, §6

SMILES	Herbicidal effects Ch
COCN1C(=O)COc2cc(F)c(-c3ccc(C(F)(F)F)n(C)c3=O)cc21 [Compound 2-19]	5

Tested on: China jute (Ab)
Assay: as above
Type: in vivo
Design: scale not given here
Details: upland field foliage treatment (corn test), dose 1.6 g ai/10a, 14th day after treatment
Procedure: as §5, §6

SMILES	Herbicidal effects Ab
COCN1C(=O)COc2cc(F)c(-c3ccc(C(F)(F)F)n(C)c3=O)cc21 [Compound 2-19]	5

Tested on: slender amaranth (Am)
Assay: as above
Type: in vivo
Design: scale not given here
Details: upland field foliage treatment (corn test), dose 1.6 g ai/10a, 14th day after treatment
Procedure: as §5, §6

SMILES	Herbicidal effects Am
COCN1C(=O)COc2cc(F)c(-c3ccc(C(F)(F)F)n(C)c3=O)cc21 [Compound 2-19]	5
